The values that follow come from US20060100243A1 (priority 2004, published 2006).

For orientation: Ki means the equilibrium dissociation constant of an inhibitor or competing ligand from its target. In general, IC50 refers to the concentration that inhibits the measured activity by half.

Molecules are shown by their SMILES. “Also recorded” adds a separate entry of the source.

T3 sequence (P31645 whole entry): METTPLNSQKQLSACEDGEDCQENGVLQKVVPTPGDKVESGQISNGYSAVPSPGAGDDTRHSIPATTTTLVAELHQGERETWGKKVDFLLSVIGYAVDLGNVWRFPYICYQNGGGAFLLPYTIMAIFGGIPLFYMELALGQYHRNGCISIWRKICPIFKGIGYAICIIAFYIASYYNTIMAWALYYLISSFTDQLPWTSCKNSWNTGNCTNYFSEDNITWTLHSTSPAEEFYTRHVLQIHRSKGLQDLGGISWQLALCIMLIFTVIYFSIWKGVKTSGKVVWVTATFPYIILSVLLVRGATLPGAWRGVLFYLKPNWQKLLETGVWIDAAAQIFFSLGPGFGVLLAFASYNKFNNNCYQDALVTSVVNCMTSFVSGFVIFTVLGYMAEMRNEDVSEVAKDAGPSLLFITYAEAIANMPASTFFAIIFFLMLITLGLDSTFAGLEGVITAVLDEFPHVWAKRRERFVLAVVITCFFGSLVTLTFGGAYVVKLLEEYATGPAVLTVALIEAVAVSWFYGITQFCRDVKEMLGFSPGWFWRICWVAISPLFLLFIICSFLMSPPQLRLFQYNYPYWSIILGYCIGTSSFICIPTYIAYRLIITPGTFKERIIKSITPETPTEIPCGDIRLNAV

The first assay deals with T1, recombinant human dopamine transporter (Homo sapiens, UniProt Q01959).
T1 construct: expressed in transfected cells
T1 sequence (Q01959 whole entry): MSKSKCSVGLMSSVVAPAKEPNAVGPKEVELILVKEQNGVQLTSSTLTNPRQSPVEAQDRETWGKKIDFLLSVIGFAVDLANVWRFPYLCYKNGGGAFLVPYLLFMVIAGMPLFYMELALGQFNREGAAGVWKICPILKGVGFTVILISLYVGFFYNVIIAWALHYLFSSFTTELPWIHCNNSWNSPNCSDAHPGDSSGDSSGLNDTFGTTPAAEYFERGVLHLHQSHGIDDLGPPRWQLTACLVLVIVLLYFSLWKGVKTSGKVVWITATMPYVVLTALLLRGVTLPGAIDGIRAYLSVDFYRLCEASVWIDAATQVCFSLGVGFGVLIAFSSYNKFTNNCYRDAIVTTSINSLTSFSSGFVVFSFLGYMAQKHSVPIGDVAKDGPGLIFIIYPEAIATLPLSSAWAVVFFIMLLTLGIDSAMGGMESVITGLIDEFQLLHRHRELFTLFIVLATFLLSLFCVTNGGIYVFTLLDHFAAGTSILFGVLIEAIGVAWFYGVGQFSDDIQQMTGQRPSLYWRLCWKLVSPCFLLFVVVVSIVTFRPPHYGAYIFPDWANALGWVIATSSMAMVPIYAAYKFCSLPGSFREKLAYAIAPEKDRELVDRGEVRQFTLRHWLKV
The experiment in a line: [125I]RTI-55 binding, dopamine transporter in HEK 293 cells. As to conditions: DOPAMINE [I125]-RTI-55 BINDING (Ki), RR/SS racemates table; HEK 293 cells.
As to `CC(C)(C)CC(c1ccc(Cl)cc1)C1CCCCN1` (racemic) [F], the Ki worked out at 0.12 ± 0.04 µM.

`CC(C)CC(c1ccc(C(C)C)cc1)C1CCCCN1` (racemic) [P]: the Ki came out at 3.3 ± 0.6 µM.

Regarding `COC(=O)C(c1ccc(Cl)cc1)C1CCCCN1` (single isomer, unassigned) [A], the inhibitory constant (Ki) is 0.025 ± 0.008 µM.

`CCC(c1ccc(Cl)cc1)C1CCCCN1` (single isomer, unassigned) [B]: the Ki stood at 0.037 ± 0.01 µM.

Regarding `CC(C)C(c1ccc(Cl)cc1)C1CCCCN1` (single isomer, unassigned) [C], the Ki stood at 0.046 ± 0.016 µM.

Regarding `CCCCC(c1ccc(Cl)cc1)C1CCCCN1` (single isomer, unassigned) [G], the Ki is 0.0078 ± 0.0011 µM.

Regarding `Clc1ccc(C(CC2CCCCC2)C2CCCCN2)cc1` (single isomer, unassigned) [H], the Ki came to 0.13 ± 0.04 µM.

As to `Clc1ccc(C(C2CCCC2)C2CCCCN2)cc1` (single isomer, unassigned) [K], the Ki was determined as 0.036 ± 0.01 µM.

Staying with this assay, now noted: DOPAMINE [I125]-RTI-55 BINDING (Ki), RS/SR racemates table; HEK 293 cells.
For the molecule `CCCC(c1ccc(Cl)cc1)C1CCCCN1` (racemic) [EE], the Ki amounted to 0.38 ± 0.04 µM.

On to `CC(C)(C)CC(c1ccc(Cl)cc1)C1CCCCN1` (racemic) [FF], for which the Ki came to 0.6 ± 0.04 µM.

Consider `COC(=O)C(c1ccc(Cl)cc1)C1CCCCN1` (single isomer, unassigned) [AA], for which the Ki amounted to 2 ± 0.6 µM.

The assay is the same for the next values; noted with them: in words; binding and reuptake, compared with MPH / other samples.
In the case of `CCCCC(c1ccc(Cl)cc1)C1CCCCN1` (single isomer, unassigned) [G], the “potency at binding to the dopamine transporter and blocking dopamine reuptake” value is “enhanced potency; also recorded: most potent”.

The target of another assay is T2, recombinant human norepinephrine transporter (Homo sapiens, UniProt P23975).
T2 construct: expressed in transfected cells
T2 sequence (P23975 whole entry): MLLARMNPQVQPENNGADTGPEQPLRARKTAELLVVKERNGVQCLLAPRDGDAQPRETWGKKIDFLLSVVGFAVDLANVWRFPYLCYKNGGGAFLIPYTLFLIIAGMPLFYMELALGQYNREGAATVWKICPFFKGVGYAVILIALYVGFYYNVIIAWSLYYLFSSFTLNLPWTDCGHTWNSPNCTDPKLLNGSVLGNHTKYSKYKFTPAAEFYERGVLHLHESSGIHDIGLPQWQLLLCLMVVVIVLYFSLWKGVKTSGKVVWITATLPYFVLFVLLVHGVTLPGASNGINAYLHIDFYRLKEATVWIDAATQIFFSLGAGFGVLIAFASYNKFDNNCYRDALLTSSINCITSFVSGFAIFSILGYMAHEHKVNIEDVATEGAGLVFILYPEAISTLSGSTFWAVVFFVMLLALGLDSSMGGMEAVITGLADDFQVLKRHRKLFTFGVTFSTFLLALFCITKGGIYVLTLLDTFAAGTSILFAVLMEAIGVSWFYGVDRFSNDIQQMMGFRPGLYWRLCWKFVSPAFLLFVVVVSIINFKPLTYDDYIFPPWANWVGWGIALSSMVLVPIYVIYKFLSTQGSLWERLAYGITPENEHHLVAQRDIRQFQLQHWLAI
Put plainly: cell-based. The following applies: NORE[…] REUPTAKE (IC50).
As for `CCCC(c1ccc(Cl)cc1)C1CCCCN1` (racemic) [EE], the IC50 worked out at 0.2 ± 0.05 µM.

Consider `CC(C)(C)CC(c1ccc(Cl)cc1)C1CCCCN1` (racemic) [FF], for which the IC50 is 0.73 ± 0.25 µM.

On to `CC(C)(C)CC(c1ccc(Cl)cc1)C1CCCCN1` (racemic) [F], for which the IC50 was determined as 0.52 ± 0.11 µM.

For the molecule `CC(C)CC(c1ccc(C(C)C)cc1)C1CCCCN1` (racemic) [P], the IC50 was 7.1 ± 1.8 µM.

For `CC(C)C(c1ccc(Cl)cc1)C1CCCCN1` (single isomer, unassigned) [C], the IC50 amounted to 0.051 ± 0.02 µM.

As to `Clc1ccc(C(CC2CCCCC2)C2CCCCN2)cc1` (single isomer, unassigned) [H], the half-inhibitory concentration (IC50) amounted to 0.94 ± 0.14 µM.

Still in this assay, the particulars now being: RR/SS racemates table; HEK 293 cells; read-out: NOREPINEPHRINE NE REUPTAKE (IC50).
On to `COC(=O)C(c1ccc(Cl)cc1)C1CCCCN1` (single isomer, unassigned) [A], for which the IC50 came to 0.011 ± 0.003 µM.

With `CCC(c1ccc(Cl)cc1)C1CCCCN1` (single isomer, unassigned) [B], the IC50 stood at 0.21 ± 0.03 µM.

On to `CCCCC(c1ccc(Cl)cc1)C1CCCCN1` (single isomer, unassigned) [G], for which the IC50 worked out at 0.026 ± 0.007 µM.

Still in this assay, the particulars now being: RS/SR racemates table; HEK 293 cells; read-out: NOREPINEPHRINE NE REUPTAKE (IC50).
Turning to `COC(=O)C(c1ccc(Cl)cc1)C1CCCCN1` (single isomer, unassigned) [AA], the IC50 was found to be 1.4 ± 0.4 µM.

A further assay has as its target T1, recombinant human dopamine transporter. The experiment in a line: dopamine reuptake inhibition in HEK 293 cells. Format: cell-based. As to conditions: DOPAMINE DA REUPTAKE (IC50), RR/SS racemates table; HEK 293 cells.
On to `CC(C)(C)CC(c1ccc(Cl)cc1)C1CCCCN1` (racemic) [F], for which the IC50 stood at 0.06 ± 0.002 µM.

Consider `CC(C)CC(c1ccc(C(C)C)cc1)C1CCCCN1` (racemic) [P], for which the IC50 turned out to be 4 ± 0.4 µM.

Take `COC(=O)C(c1ccc(Cl)cc1)C1CCCCN1` (single isomer, unassigned) [A]: the IC50 amounted to 0.011 ± 0.002 µM.

In the case of `CCC(c1ccc(Cl)cc1)C1CCCCN1` (single isomer, unassigned) [B], the IC50 came to 0.023 ± 0.005 µM.

For the molecule `CC(C)C(c1ccc(Cl)cc1)C1CCCCN1` (single isomer, unassigned) [C], the IC50 worked out at 0.032 ± 0.006 µM.

`CCCCC(c1ccc(Cl)cc1)C1CCCCN1` (single isomer, unassigned) [G]: the IC50 is 0.0082 ± 0.0021 µM.

With `Clc1ccc(C(CC2CCCCC2)C2CCCCN2)cc1` (single isomer, unassigned) [H], the IC50 is 0.23 ± 0.07 µM.

`Clc1ccc(C(C2CCCC2)C2CCCCN2)cc1` (single isomer, unassigned) [K]: the IC50 came to 0.027 ± 0.0083 µM.

Still in this assay, the particulars now being: DOPAMINE DA REUPTAKE (IC50), RS/SR racemates table; HEK 293 cells.
On to `CCCC(c1ccc(Cl)cc1)C1CCCCN1` (racemic) [EE], for which the IC50 is 0.45 ± 0.06 µM.

Turning to `CC(C)(C)CC(c1ccc(Cl)cc1)C1CCCCN1` (racemic) [FF], the concentration for half-maximal inhibition (IC50) was 0.67 ± 0.26 µM.

As for `COC(=O)C(c1ccc(Cl)cc1)C1CCCCN1` (single isomer, unassigned) [AA], the IC50 is 2.7 ± 1 µM.

The same assay, now with this note: in words; from binding and reuptake values.
As to `CC(C)(C)CC(c1ccc(Cl)cc1)C1CCCCN1` (racemic) [F], the “selectivity for the dopamine transporter over the norepinephrine transporter” value was “enhanced selectivity”.

For the molecule `CCC(c1ccc(Cl)cc1)C1CCCCN1` (single isomer, unassigned) [B], the “selectivity for the dopamine transporter over the norepinephrine transporter” value is recorded as “enhanced selectivity”.

The assay is the same for the next values; noted with them: ratio of NE/DA reuptake IC50; selectivity for dopamine over norepinephrine transporter.
As for `CC(C)(C)CC(c1ccc(Cl)cc1)C1CCCCN1` (racemic) [F], the “NE/DA REUPTAKE” value worked out at 8.7.

Regarding `CC(C)CC(c1ccc(C(C)C)cc1)C1CCCCN1` (racemic) [P], the “NE/DA REUPTAKE” value is reported as 1.8.

In the case of `COC(=O)C(c1ccc(Cl)cc1)C1CCCCN1` (single isomer, unassigned) [A], the “NE/DA REUPTAKE” value was 1.0.

`CCC(c1ccc(Cl)cc1)C1CCCCN1` (single isomer, unassigned) [B]: the “NE/DA REUPTAKE” value is 9.1.

In the case of `CC(C)C(c1ccc(Cl)cc1)C1CCCCN1` (single isomer, unassigned) [C], the “NE/DA REUPTAKE” value turned out to be 1.6.

Regarding `Clc1ccc(C(CC2CCCCC2)C2CCCCN2)cc1` (single isomer, unassigned) [H], the “NE/DA REUPTAKE” value was 4.1.

The next assay has as its target T3, recombinant human serotonin transporter (Homo sapiens, UniProt P31645).
T3 construct: expressed in transfected cells
The experiment in a line: biochemical. The class given is binding. As to conditions: RR/SS racemates table; HEK 293 cells; read-out: SEROTONIN [I125]-RTI-55 BINDING (Ki).
Consider `CC(C)(C)CC(c1ccc(Cl)cc1)C1CCCCN1` (racemic) [F], for which the Ki was 3.9 ± 0.5 µM.

As for `Clc1ccc(C(CC2CCCCC2)C2CCCCN2)cc1` (single isomer, unassigned) [H], the Ki was found to be 0.9 ± 0.4 µM.

In the case of `Clc1ccc(C(C2CCCC2)C2CCCCN2)cc1` (single isomer, unassigned) [K], the Ki amounted to 5.7 ± 1.1 µM.

The assay is the same for the next values; noted with them: RS/SR racemates table; HEK 293 cells; read-out: SEROTONIN [I125]-RTI-55 BINDING (Ki).
Consider `CCCC(c1ccc(Cl)cc1)C1CCCCN1` (racemic) [EE], for which the Ki was 3.2 ± 1.1 µM.

`CC(C)(C)CC(c1ccc(Cl)cc1)C1CCCCN1` (racemic) [FF]: the Ki came to 3.5 ± 1 µM.

Staying with this assay, now noted: SEROTONIN [I125]-RTI-55 BINDING (Ki).
Regarding `CC(C)CC(c1ccc(C(C)C)cc1)C1CCCCN1` (racemic) [P], the Ki worked out at 3.3 ± 0.6 µM.

In the case of `COC(=O)C(c1ccc(Cl)cc1)C1CCCCN1` (single isomer, unassigned) [AA], the inhibitory constant (Ki) stood at 5.9 ± 0.2 µM.

Take `COC(=O)C(c1ccc(Cl)cc1)C1CCCCN1` (single isomer, unassigned) [A]: the Ki was 6 ± 0.1 µM.

As to `CCC(c1ccc(Cl)cc1)C1CCCCN1` (single isomer, unassigned) [B], the Ki was found to be 7.8 ± 0.8 µM.

`CC(C)C(c1ccc(Cl)cc1)C1CCCCN1` (single isomer, unassigned) [C]: the Ki turned out to be 5.3 ± 1.3 µM.

The next assay addresses T3, recombinant human serotonin transporter. The experiment in a line: serotonin (5HT) reuptake inhibition in HEK 293 cells. The class given is cell-based. The following applies: SEROTONIN 5HT REUPTAKE (IC50), RR/SS racemates table; HEK 293 cells.
Take `CC(C)CC(c1ccc(C(C)C)cc1)C1CCCCN1` (racemic) [P]: the IC50 came to 4.7 ± 0.7 µM.

For `CCC(c1ccc(Cl)cc1)C1CCCCN1` (single isomer, unassigned) [B], the IC50 came out at 2.4 ± 0.4 µM.

Consider `CC(C)C(c1ccc(Cl)cc1)C1CCCCN1` (single isomer, unassigned) [C], for which the IC50 was 3.3 ± 0.4 µM.

Regarding `Clc1ccc(C(CC2CCCCC2)C2CCCCN2)cc1` (single isomer, unassigned) [H], the IC50 came out at 1 ± 0.2 µM.

For `Clc1ccc(C(C2CCCC2)C2CCCCN2)cc1` (single isomer, unassigned) [K], the IC50 was found to be 4.6 ± 0.8 µM.

The assay is the same for the next values; noted with them: SEROTONIN 5HT REUPTAKE (IC50), RS/SR racemates table; HEK 293 cells.
As to `CCCC(c1ccc(Cl)cc1)C1CCCCN1` (racemic) [EE], the concentration for half-maximal inhibition (IC50) came out at 1.3 ± 0.007 µM.

As to `CC(C)(C)CC(c1ccc(Cl)cc1)C1CCCCN1` (racemic) [FF], the IC50 turned out to be 1.8 ± 0.6 µM.

Staying with this assay, now noted: SEROTONIN 5HT REUPTAKE (IC50), RS/SR racemates table; in μM.
Regarding `COC(=O)C(c1ccc(Cl)cc1)C1CCCCN1` (single isomer, unassigned) [AA], the IC50 was greater than 10 µM.

Another assay addresses T2, recombinant human norepinephrine transporter. Put plainly: biochemical. The class given is binding. As to conditions: NOREPINEPHRINE [I125]-RTI-55 BINDING (Ki).
Consider `CCCC(c1ccc(Cl)cc1)C1CCCCN1` (racemic) [EE], for which the Ki amounted to 1.4 ± 0.4 µM.

For `CC(C)(C)CC(c1ccc(Cl)cc1)C1CCCCN1` (racemic) [F], the Ki amounted to 1.4 ± 0.4 µM.

Regarding `CC(C)CC(c1ccc(C(C)C)cc1)C1CCCCN1` (racemic) [P], the Ki stood at 2.5 ± 0.6 µM.

`CC(C)C(c1ccc(Cl)cc1)C1CCCCN1` (single isomer, unassigned) [C]: the Ki was determined as 0.81 ± 0.17 µM.

As to `Clc1ccc(C(CC2CCCCC2)C2CCCCN2)cc1` (single isomer, unassigned) [H], the Ki was determined as 4.2 ± 0.2 µM.

Still in this assay, the particulars now being: NOREPINEPHRINE [I125]-RTI-55 BINDING (Ki), RR/SS racemates table; HEK 293 cells.
With `CCCCC(c1ccc(Cl)cc1)C1CCCCN1` (single isomer, unassigned) [G], the Ki was determined as 0.23 ± 0.03 µM.

Still in this assay, the particulars now being: RR/SS racemates table; HEK 293 cells; read-out: NOREPINEPHRINE [I125]-RTI-55 BINDING (Ki).
On to `COC(=O)C(c1ccc(Cl)cc1)C1CCCCN1` (single isomer, unassigned) [A], for which the Ki stood at 0.11 ± 0.04 µM.

In the case of `CCC(c1ccc(Cl)cc1)C1CCCCN1` (single isomer, unassigned) [B], the Ki is 0.36 ± 0.06 µM.
